Experiments:
HT-22 cells = assay: HT-22 serum deprivation toxicity; type: cell-based, mouse; details: for protection against serum deprivation: 24 h in 10% FBS with compound, then about 12 h serum free medium; for concentration enhancing serum deprivation-induced toxicity: HT-22
Procedure: The effects of pretreatment of HT-22 cells with PPARγ agonists on serum deprivation toxicity were also studied. We examined whether 15d-PGJ2 or troglitazone have neuroprotective activity against serum deprivation toxicity. HT-22 cells were incubated for 24 hours in 10% FBS medium containing either 15d-PGJ2 or troglitazone. Then, cells were exposed for about 12 hours to a serum free medium with both of the compounds present. […] In addition, 15d-PGJ2 and troglitazone enhanced the serum deprivation-induced toxicity at or above 10 μM and 20 μM, respectively.
(§1) The WY-14643, Ciglitazone, Troglitazone, 9-cis retinoic acid, and 15d-PGJ2 compounds were purchased from Biomol (Plymouth Meeting, Pa.). L-165041 and L-783483 were kindly provided by Merck Laboratories. The cell lines used were HT-22, an immortalized mouse hippocampal cell line, and SK—N—SH, a human neuroblastoma cell line. The HT-22 cells were obtained from David Schubert (Salk Institute, San Diego, Calif.). The HT-22 line was originally selected from HT-4 cells based on glutamate sensitivity. HT-4 cells were immortalized from primary hippocampal neurons using a temperature-sensitive SV-40 T antigen (Morimoto and Koshland, 1990). SK—N—SH were obtained from ATCC (Manassas, Va.). HT-22 and SK—N—SH cells were grown to confluence in DMEM and RPMI-1640 media, respectively, and supplemented with 10% charcoal/dextran-treated fetal bovine serum (FBS), and 5 mg/ml gentamycin at 37° C. under 95% air, 5% CO2. HT-22 cells were plated at a density of 50,000 cells/ml (5,000 cells/well), and SK—N—SH were plated at a density of 120,000 to 150,000 cells/ml (12,000 to 15,000 cells/well) in 96-well plates. In most studies, wells were pre-treated with PPAR ligands over a wide dose range at various times prior to being subjected to either glutamate, hydrogen peroxide (H2O2), or serum deprivation insults. In some studies, the insults were applied prior to the addition of the PPAR ligand.
(§2) The cell viability assays were conducted about 14 to 24 hours post-insult time, viability of cells was determined using 2.5 μM Calcein AM assay in phosphate-buffered saline (PBS). After 25 minutes of incubation, live cells were distinguished by the presence of intracellular esterase activity, which cleaves the calcein AM dye, producing a bright green fluorescence. Viability was measured in Relative Fluorescent Units (“RFU”), and expressed as percentage of vehicle-treated control values. The calcein assay was designed to produce results that accurately reflect viable cell numbers. At cell concentrations below 10,000 cells per well (96-well plate) a linear relationship between RFU and cell number is achieved (r^2=0.9997, data not shown).

SK—N—SH cells = assay: SK-N-SH H2O2 and serum deprivation insults; type: cell-based, human
Procedure: Additionally, the effects of pretreatment with PPARγ agonists on H2O2 and serum deprivation toxicities were studied in SK—N—SH cells. After showing that protection in HT-22 cells was insult-type specific, we investigated whether it was also cell-type specific. We used SK—N—SH, a human neuroblastoma cell lines, and tested whether 15d-PGJ2 and troglitazone would protect SK—N—SH against H2O2 and serum deprivation insults. […] Higher concentrations (>10 μM and >20 μM) of 15dPGJ2 and troglitazone, respectively, were toxic to SK—N—SH cells.
as §1, §2

C6 Glioma cells = assay: C6 glioma glutamate cytotoxicity; type: cell-based, rat; details: dose dependent manner
Procedure: (§3) The in vitro model used for oxidative cell death was based upon glutamate, hydrogen peroxide, and buthionine sulfoximine (“BSO”) administration to HT-22 mouse hippocampal, C6 rat glioma, and RGC-5 retinal ganglion cell lines. The ease that the above cell lines are cultured is well known in the art of cell culture. Additionally, these cell lines are suitable for screening a various number of compounds described in the present invention.
(§4) Although not wanting to be bound by theory, the toxicity of glutamate in HT-22 (32) and C6 glioma (33) cell lines is mediated through oxidative stress. HT-22 cells lack ionotropic N-methyl-D-aspartate (“NMDA”) glutamate receptors, and the glutamate-induced cell death appears to occur via a slow onset oxidative stress (32,34,35). Glutamate blocks cystine uptake by inhibiting the glutamate/cystine antiporter in both HT-22 (32) and C6 glioma (33) cell lines. […] In some of the experiments, the viability of cells was determined using 2.5 μM calcein AM assay in phosphate-buffered saline (PBS 1×). After 25 minutes of incubation, live cells were distinguished by the presence of intracellular esterase activity, which cleaves the calcein AM dye, producing a bright green fluorescence, as shown in FIG. 22. Viability was measured in Relative Fluorescent Units (“RFU”), and expressed as percentage of vehicle-treated control values. […]

RGC-5 cells = assay: RGC-5 glutamate cytotoxicity; type: cell-based; details: dose dependent manner
Procedure: as §3, §4

Structure (SMILES): Cc1c(C)c2c(c(C)c1O)CCC(C)(COc1ccc(CC3SC(=O)NC3=O)cc1)O2 (stereo not drawn) [troglitazone]
- protection against serum deprivation (HT-22 cells): failed to protect
- concentration enhancing serum deprivation-induced toxicity (HT-22 cells): ≥ 20 µM
- concentrations toxic to SK-N-SH cells (SK—N—SH cells): > 20 µM
- protection against H2O2 and serum deprivation insults (SK—N—SH cells): Neither of the compounds protected
- protection against glutamate toxicity (C6 Glioma cells): protected
- protection against glutamate toxicity (RGC-5 cells): protected

Structure (SMILES): CCCCC/C=C/C=C1/C(=O)C=C[C@@H]1C/C=C\CCCC(=O)O [15d-PGJ2, 15-deoxy-Δ^12,14-PGJ2]
- protection against serum deprivation (HT-22 cells): failed to protect
- concentration enhancing serum deprivation-induced toxicity (HT-22 cells): ≥ 10 µM
- concentrations toxic to SK-N-SH cells (SK—N—SH cells): > 10 µM
- protection against H2O2 and serum deprivation insults (SK—N—SH cells): Neither of the compounds protected
- protection against glutamate toxicity (C6 Glioma cells): protected
- protection against glutamate toxicity (RGC-5 cells): protected

From patent publication US20040224995A1 (University of North Texas Health Science Center at Fort …, priority 2003, published 2004)
